From PubChem BioAssay AID1919017 (Molecular Pharmacology Branch, DTP, NCI, 2023)

Test system: SW1271 complex spheroids with HUVEC/MSC, growth, % test/control
Test: Anticancer human tumor SW1271 cell line growth inhibition [AhR];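 also: spheroids exposed to agents for 7 days before readout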
Conditions: for IC50: curve of first compound; for viability, T/C: stronger effect = lower value
Summary of the method: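 Spheroids combined tumor cells with HUVEC endothelial cells and human MSCs as stroma. AhR antagonists were paired with standard or investigational drugs, each dosed in half-log steps down from near clinical Cmax, or from 10 microM where Cmax was unknown.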

[1] = second compound 0.1 µM, first compound 0.0316 µM
[2] = second compound 0.1 µM, first compound 0.1 µM
[3] = second compound 0.1 µM, first compound 0.316 µM
[4] = second compound 0.1 µM, first compound 1 µM
[5] = second compound 0.1 µM, first compound 3.16 µM
[6] = second compound 0.1 µM, first compound 10 µM
[7] = second compound 0.316 µM, first compound 0.0316 µM
[8] = second compound 0.316 µM, first compound 0.1 µM
[9] = second compound 0.316 µM, first compound 0.316 µM
[10] = second compound 0.316 µM, first compound 1 µM
[11] = second compound 0.316 µM, first compound 3.16 µM
[12] = second compound 0.316 µM, first compound 10 µM
[13] = second compound 1 µM, first compound 0.0316 µM
[14] = second compound 1 µM, first compound 0.1 µM
[15] = second compound 1 µM, first compound 0.316 µM
[16] = second compound 1 µM, first compound 1 µM
[17] = second compound 1 µM, first compound 3.16 µM
[18] = second compound 1 µM, first compound 10 µM
[19] = second compound 3.16 µM, first compound 0.0316 µM
[20] = second compound 3.16 µM, first compound 0.1 µM
[21] = second compound 3.16 µM, first compound 0.316 µM
[22] = second compound 3.16 µM, first compound 1 µM
[23] = second compound 3.16 µM, first compound 3.16 µM
[24] = second compound 3.16 µM, first compound 10 µM
[25] = second compound 10 µM, first compound 0.0316 µM
[26] = second compound 10 µM, first compound 0.1 µM
[27] = second compound 10 µM, first compound 0.316 µM
[28] = second compound 10 µM, first compound 1 µM
[29] = second compound 10 µM, first compound 3.16 µM
[30] = second compound 10 µM, first compound 10 µM
[31] = second compound 0.1 µM, first compound 0.00316 µM
[32] = second compound 0.1 µM, first compound 0.01 µM
[33] = second compound 0.316 µM, first compound 0.00316 µM
[34] = second compound 0.316 µM, first compound 0.01 µM
[35] = second compound 1 µM, first compound 0.00316 µM
[36] = second compound 1 µM, first compound 0.01 µM
[37] = second compound 3.16 µM, first compound 0.00316 µM
[38] = second compound 3.16 µM, first compound 0.01 µM
[39] = second compound 10 µM, first compound 0.00316 µM
[40] = second compound 10 µM, first compound 0.01 µM

| Structure (SMILES) | IC50 (second compound 0.1 µM) [nM] | IC50 (second compound 0.316 µM) [nM] | IC50 (second compound 1 µM) [nM] | IC50 (second compound 3.16 µM) [nM] | IC50 (second compound 10 µM) [nM] | viability, T/C [1] [%] | viability, T/C [2] [%] | viability, T/C [3] [%] | viability, T/C [4] [%] | viability, T/C [7] [%] | viability, T/C [8] [%] | viability, T/C [9] [%] | viability, T/C [10] [%] | viability, T/C [13] [%] | viability, T/C [14] [%] | viability, T/C [15] [%] | viability, T/C [19] [%] | viability, T/C [20] [%] | viability, T/C [25] [%] | viability, T/C [26] [%] | other results |
| --- | --- | --- | --- | --- | --- | --- | --- | --- | --- | --- | --- | --- | --- | --- | --- | --- | --- | --- | --- | --- | --- |
| CC(C)c1c(-c2ccccc2)nc2c(C#N)c[nH]n2c1=O + Cc1ccccc1N=Nc1ccc(NC(=O)c2ccnn2C)c(C)c1 | > 10000 | > 10000 | > 10000 | > 10000 | > 10000 | 99.6 | 85.9 | 94.9 | 78 | 102 | 110 | 112 | 107 | 90.5 | 97.6 | 91 | 93.3 | 88.3 | 76.5 | 88.5 | viability, T/C [5]: 102%; viability, T/C [6]: 102%; viability, T/C [11]: 85.3%; viability, T/C [12]: 77.3%; viability, T/C [16]: 113%; viability, T/C [17]: 107%; viability, T/C [18]: 94.4%; viability, T/C [21]: 130%; viability, T/C [22]: 109%; viability, T/C [23]: 119%; viability, T/C [24]: 101%; viability, T/C [27]: 108%; viability, T/C [28]: 113%; viability, T/C [29]: 88.2%; viability, T/C [30]: 87.6% |
| CC[C@@]1(O)C(=O)OCc2c1cc1n(c2=O)Cc2cc3c(CN(C)C)c(O)ccc3nc2-1 + Cc1cncc(-c2nc(NCCc3c[nH]c4ccccc34)c3ncn(C(C)C)c3n2)c1 | > 100 | > 100 | > 100 | > 100 | 11.9 | 105 | 91 | – | – | 102 | 67 | – | – | 77.4 | 80.2 | – | 96 | 78 | 45 | 37.1 | viability, T/C (second compound 0.1 µM, first compound 0.000316 µM): 85.2%; viability, T/C (second compound 0.1 µM, first compound 0.001 µM): 99.7%; viability, T/C [31]: 124%; viability, T/C [32]: 84.9%; viability, T/C (second compound 0.316 µM, first compound 0.000316 µM): 93.5%; viability, T/C (second compound 0.316 µM, first compound 0.001 µM): 114%; viability, T/C [33]: 108%; viability, T/C [34]: 94.3%; viability, T/C (second compound 1 µM, first compound 0.000316 µM): 100%; viability, T/C (second compound 1 µM, first compound 0.001 µM): 118%; viability, T/C [35]: 108%; viability, T/C [36]: 88.9%; viability, T/C (second compound 3.16 µM, first compound 0.000316 µM): 95.2%; viability, T/C (second compound 3.16 µM, first compound 0.001 µM): 109%; viability, T/C [37]: 106%; viability, T/C [38]: 86.5%; viability, T/C (second compound 10 µM, first compound 0.000316 µM): 66.1%; viability, T/C (second compound 10 µM, first compound 0.001 µM): 62.2%; viability, T/C [39]: 52%; viability, T/C [40]: 54.5% |
| COc1cc(C2c3cc4c(cc3C(OC3OC5COC(C)OC5C(O)C3O)C3COC(=O)C23)OCO4)cc(OC)c1O (stereo not given) + Cc1cncc(-c2nc(NCCc3c[nH]c4ccccc34)c3ncn(C(C)C)c3n2)c1 | > 10000 | > 10000 | > 10000 | > 10000 | < 31.6 | 81.6 | 88.5 | 68.1 | 60.7 | 86.1 | 86.3 | 67.4 | 53.8 | 96.2 | 80.1 | 79.2 | 89.8 | 99.2 | 41.5 | 39.6 | viability, T/C [5]: 63.6%; viability, T/C [6]: 65.3%; viability, T/C [11]: 66.1%; viability, T/C [12]: 53.4%; viability, T/C [16]: 80.9%; viability, T/C [17]: 55.9%; viability, T/C [18]: 72%; viability, T/C [21]: 112%; viability, T/C [22]: 76.2%; viability, T/C [23]: 72.4%; viability, T/C [24]: 70.6%; viability, T/C [27]: 41%; viability, T/C [28]: 35.4%; viability, T/C [29]: 32.6%; viability, T/C [30]: 29.1% |
| COc1cccc2c1C(=O)c1c(O)c3c(c(O)c1C2=O)CC(O)(C(=O)CO)CC3OC1CC(N)C(O)C(C)O1 (stereo not given) + Cc1cncc(-c2nc(NCCc3c[nH]c4ccccc34)c3ncn(C(C)C)c3n2)c1 | 332 | 280 | 380 | 258 | < 31.6 | 74 | 79.5 | 51.9 | 6.7 | 81.5 | 72.4 | 47.1 | 2.96 | 89.5 | 89 | 58.8 | 95 | 77.8 | 48 | 38.4 | viability, T/C [5]: 3.78%; viability, T/C [6]: 5.75%; viability, T/C [11]: 3.17%; viability, T/C [12]: 6.88%; viability, T/C [16]: 1.94%; viability, T/C [17]: 4.32%; viability, T/C [18]: 4.87%; viability, T/C [21]: 46.4%; viability, T/C [22]: 1.86%; viability, T/C [23]: 5.28%; viability, T/C [24]: 7.13%; viability, T/C [27]: 24.3%; viability, T/C [28]: 3.36%; viability, T/C [29]: 9.24%; viability, T/C [30]: 7.74% |
| Nc1ccn(C2OC(CO)C(O)C2(F)F)c(=O)n1 (stereo not given) + Cc1cncc(-c2nc(NCCc3c[nH]c4ccccc34)c3ncn(C(C)C)c3n2)c1 | > 10000 | > 10000 | > 10000 | > 10000 | < 31.6 | 75.4 | 97.1 | 67 | 64 | 60.5 | 65.8 | 68 | 64.3 | 74.2 | 72.8 | 85.4 | 81.1 | 78.6 | 39.5 | 38.2 | viability, T/C [5]: 62.7%; viability, T/C [6]: 54.6%; viability, T/C [11]: 66.9%; viability, T/C [12]: 56.8%; viability, T/C [16]: 65%; viability, T/C [17]: 67.8%; viability, T/C [18]: 58.4%; viability, T/C [21]: 103%; viability, T/C [22]: 65%; viability, T/C [23]: 81.8%; viability, T/C [24]: 75.2%; viability, T/C [27]: 39.3%; viability, T/C [28]: 36.7%; viability, T/C [29]: 37.8%; viability, T/C [30]: 30.6% |
| Nc1ncn(C2CC(O)C(CO)O2)c(=O)n1 (stereo not given) + Cc1cncc(-c2nc(NCCc3c[nH]c4ccccc34)c3ncn(C(C)C)c3n2)c1 | > 1000 | > 1000 | > 1000 | > 1000 | 307 | 104 | 87 | 83.1 | 83.8 | 111 | 83.4 | 76.3 | 95.1 | 107 | 77.3 | 111 | 87.9 | 104 | 51 | 53 | viability, T/C [31]: 107%; viability, T/C [32]: 123%; viability, T/C [33]: 105%; viability, T/C [34]: 92.6%; viability, T/C [35]: 88.1%; viability, T/C [36]: 90.5%; viability, T/C [16]: 84%; viability, T/C [37]: 97.4%; viability, T/C [38]: 103%; viability, T/C [21]: 90%; viability, T/C [22]: 110%; viability, T/C [39]: 52.4%; viability, T/C [40]: 54.8%; viability, T/C [27]: 48.9%; viability, T/C [28]: 47.5% |
